Source: US10512626B2, “Compositions for use in treating glioblastoma” (PELOTON THERAPEUTICS, INC., priority 2015, dated 2019)

Test system: VEGF concentration in culture medium of 786-O cells
Assay: VEGF ELISA Assay
Assay type: cell-based
Details: Homo sapiens, 786-0
Method: Each concentration was plated in duplicate. About 20 hours later, medium was removed by suction and each well was supplied with 180 μL of growth medium. About 20 µl freshly-made 10× compound stocks were added to each well. […] The EC50 was calculated by GraphPad Prism using the dose-response-inhibition (four parameter) equation. The cell-seeded plate was then subjected to CellTiter-Glo luminescence cell viability assay (Promega) by adding 50 μL of Celltiter Glo reagent into each well and shaking the plate for 8 minutes at 550 rpm (Thermomixer R, Eppendorf) then the luminescence signal immediately read in a plate reader (3 second delay, 0.5 second/well integration time, Synergy 2 multi Detection Microplate reader).

Structure (SMILES)	EC50 [nM]
O=S(=O)(c1ccc(Oc2cc(F)cc(Cl)c2)c2c1[C@H](O)CC2)C(F)F [Compound 1]	250 to 1000
O=S(=O)(c1ccc(Oc2cc(F)cc(Cl)c2)c2c1C(O)CC2)C(F)F (stereo not shown) [Compound 17]	50 to 249
O=S(=O)(c1ccc(Oc2cc(F)cc(Cl)c2)c(C(F)F)c1)C(F)(F)F [Compound 124]	250 to 1000
N#Cc1cc(F)cc(Oc2ccc(S(=O)(=O)C(F)F)c3c2CC[C@H]3O)c1 [Compound 155]	50 to 249
CS(=O)(=O)c1ccc(Oc2cc(Cl)cc(C#N)c2)c2c1[C@H](O)C(F)(F)C2 [Compound 234]	50 to 249

Continued, values first:

EC50 [nM]	Structure (SMILES)
250 to 1000	O=S(=O)(c1ccc(Oc2cc(F)cc(Cl)c2)c(Cl)c1CO)C(F)F [Compound 41]
50 to 249	N#Cc1ccc(Oc2cc(F)cc(F)c2)c2c1[C@H](O)C(F)(F)C2 [Compound 67]
250 to 1000	N#Cc1cc(F)cc(Oc2ccc(S(=O)(=O)C(F)F)c3c2CCC3O)c1 (stereo not shown) [Compound 78]
50 to 249	CS(=O)(=O)c1ccc(OC2CC(C#N)C2)c2c1[C@H](O)C(F)(F)[C@@H]2F (stereo partly shown) [Compound 760]

Biological target: T1, HIF-2α HIS TAG-PASB Domain (Homo sapiens, UniProt Q99814)
T1 construct: 100 nM HIF-2α HIS TAG-PASB Domain
T1 sequence (Q99814 240-350 limits assumed): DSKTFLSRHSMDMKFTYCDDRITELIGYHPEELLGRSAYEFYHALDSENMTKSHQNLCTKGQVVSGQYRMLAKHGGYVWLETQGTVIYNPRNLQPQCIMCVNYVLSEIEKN
Assay: HIF-2α Scintillation Proximity Assay (SPA)
Assay type: binding
Details: displacement of tritiated probe Compound 183
Method: The total assay volume was about 100 μL in the following configuration: 2 μL compound in 100% DMSO, 88 μL buffer with protein and probe and 10 μL of SPA beads. […] The percent inhibition was determined and IC50 values were calculated using the Dotmatics system based on the following equation: % inhibition=[(high control−sample)/(high control−low control)]×100.

Structure (SMILES)	IC50 [nM]
CS(=O)(=O)c1ccc(Nc2cc(F)cc(C#N)c2)c2c1[C@H](O)C(F)(F)C2 [Compound 502]	> 1000
O=S(=O)(c1ccc(O[C@H]2C[C@H](O)C2)c2c1[C@H](O)C(F)(F)C2)C(F)(F)F [Compound 644]	250 to 1000

Further lines, results first:

IC50 [nM]	Structure (SMILES)
50 to 249	FC(F)COc1ccc(C(F)(F)F)c2c1C[C@H](F)[C@H]2F [Compound 697]
< 50	CS(=O)(=O)c1ccc(O[C@H]2C[C@H](C#N)C2)c2c1[C@H](O)C(F)(F)[C@@H]2F [Compound 760]

Test system: 786-O-Hif-Luc cells (luciferase gene driven by multiple HIF responsive elements)
Assay: Luciferase Assay (HIF reporter)
Details: 24 h, read-out: Mean Luciferase EC50 (nM)
Method: A pool of infected cells were then selected against 2 μg/mL of puromycin (P8833, Sigma) for 10 days followed by limited dilution to select single clones.
Each concentration was tested in triplicate. After about 24 hours, luciferase activity was determined using ONE-Glo Luciferase Assay Reagent (E6110, Promega) following the manufacturer's recommended procedure. EC50 were calculated using Dotmatics software.

Structure (SMILES)	EC50 [nM]
O=S(=O)(c1ccc(Oc2cc(F)cc(Cl)c2)c(C(F)F)c1)C(F)(F)F [Compound 124]	250 to 1000
N#Cc1cc(F)cc(Oc2ccc(S(=O)(=O)C(F)F)c3c2CC[C@H]3O)c1 [Compound 155]	50 to 249
CS(=O)(=O)c1ccc(Oc2cc(F)cc(C#N)c2)c2c1[C@H](N)C(F)(F)C2 [Compound 165]	50 to 249
CCS(=O)(=O)c1ccc(Oc2cc(F)cc(C#N)c2)c2c1[C@H](O)C(F)(F)C2 [Compound 206]	50 to 249
CS(=O)(=O)c1ccc(Oc2cc(F)cc(C#N)c2)c2c1[C@@H](O)C(F)(F)C2 [Compound 226]	> 1000
CS(=O)(=O)c1ccc(Oc2cc(F)cc(C#N)c2)c2c1[C@H](O)[C@H](F)C2 [Compound 231]	< 50
CS(=O)(=O)c1ccc(Oc2cc(Cl)cc(C#N)c2)c2c1[C@H](O)C(F)(F)C2 [Compound 234]	< 50
[2H][C@]1(O)c2c(S(C)(=O)=O)ccc(Oc3cc(F)cc(C#N)c3)c2CC1(F)F [Compound 247]	< 50
N#Cc1cc(F)cc(Oc2ccc(S(N)(=O)=O)c3c2CC(F)(F)[C@H]3O)c1 [Compound 252]	50 to 249
NS(=O)(=O)c1ccc(Oc2cc(F)cc(F)c2)c2c1[C@H](O)C(F)(F)C2 [Compound 256]	< 50
CS(=O)(=O)c1ccc(Oc2cc(F)cc(C#N)c2)c2c1[C@H](O)[C@@H](F)C2 [Compound 271]	250 to 1000
CS(=O)(=O)c1ccc(Oc2cc(F)cc(C#N)c2)c2c1[C@H](O)[C@H](F)[C@@H]2F [Compound 289, 3-[(1S,2S,3R)-2,3-difluoro-1-hydroxy-7-methylsulfonyl-indan-4-yl]oxy-5-fluoro-benzonitrile]	< 50

More lines, now with the values ahead:

EC50 [nM]	Structure (SMILES)
250 to 1000	C[C@H]1C[C@@H](O)c2c(S(=O)(=O)C(F)F)ccc(Oc3cc(F)cc(Cl)c3)c21 [Compound 7a]
250 to 1000	O=S(=O)(c1ccc(Oc2cc(F)cc(Cl)c2)c(Cl)c1CO)C(F)F [Compound 41]
50 to 249	N#Cc1cc(F)cc(Oc2ccc(S(=O)(=O)C(F)(F)F)c3c2CC[C@H]3O)c1 [Compound 57]
250 to 1000	N#Cc1cccc(Oc2ccc(S(=O)(=O)C(F)F)c3c2CC[C@H]3O)c1 [Compound 156]
< 50	CS(=O)(=O)c1ccc(Oc2cc(F)cc(C#N)c2)c2c1[C@H](O)C(F)(F)C2 [Compound 163, (S)-3-((2,2-Difluoro-1-hydroxy-7-(methylsulfonyl)-2,3-dihydro-1H-inden-4-yl)oxy)-5-fluorobenzonitrile]
< 50	N#Cc1cc(Cl)cc(Oc2ccc(S(=O)(=O)CF)c3c2CC(F)(F)[C@H]3O)c1 [Compound 167]
50 to 249	CS(=O)(=O)c1ccc(Oc2cc(F)cc(C#N)c2)c2c1C(O)C(F)(F)C2 (stereo not shown) [Compound 223]
< 50	[2H]C([2H])([2H])S(=O)(=O)c1ccc(Oc2cc(F)cc(C#N)c2)c2c1[C@]([2H])(O)C(F)(F)C2 [Compound 229]
< 50	CS(=O)(=O)c1ccc(Oc2cc(F)cc(C#N)c2)c2c1C(O)C(F)C2 (stereo not shown) [Compound 232]
< 50	N#Cc1cncc(Oc2ccc(S(=O)(=O)C(F)(F)F)c3c2CC(F)(F)[C@H]3O)c1 [Compound 235]
50 to 249	CNS(=O)(=O)c1ccc(Oc2cc(F)cc(F)c2)c2c1[C@H](O)C(F)(F)C2 [Compound 251]
50 to 249	CNS(=O)(=O)c1ccc(Oc2cc(F)cc(C#N)c2)c2c1[C@H](O)C(F)(F)C2 [Compound 254]
50 to 249	N#Cc1cc(F)cc(Oc2ccc(S(=O)(=O)C(F)(F)F)c3c2CC(F)(F)[C@H]3N)c1 [Compound 290]
< 50	N#Cc1cc(F)cc(Oc2ccc(S(N)(=O)=O)c3c2[C@@H](F)C(F)(F)[C@H]3O)c1 [Compound 338]
250 to 1000	N#Cc1cc(F)cc(Oc2ccc(S(N)(=O)=O)c3c2[C@H](F)C(F)(F)[C@H]3O)c1 [Compound 339]

Same assay, conditions: 24 h, read-out: Mean Luciferase EC50 (nM), 786-O-Hif-Luc cells, about 24 hours

EC50 [nM]	Structure (SMILES)
250 to 1000	O=S(=O)(c1ccc(O[C@H]2C[C@H](O)C2)c2c1[C@H](O)C(F)(F)C2)C(F)(F)F [Compound 644]
50 to 249	FC(F)COc1ccc(C(F)(F)F)c2c1C[C@H](F)[C@H]2F [Compound 697]
50 to 249	CS(=O)(=O)c1ccc(OC2CC(C#N)C2)c2c1[C@H](O)C(F)(F)[C@@H]2F (stereo partly shown) [Compound 760]
